{"source": "patent US12458610B2", "about": "“Pharmaceutical composition for treating or preventing diabetic cataract” (KOREA UNIVERSITY RESEARCH AND BUSINESS FOUNDATION, priority 2019, dated 2025)", "format_in_all_cases": "in vivo, rat", "key": {"[1]": {"assay": "Fasting blood sugar level in diabetes model rats, weekly by blood glucose meter", "details": "midodrine 1.0 mg/kg/day in drinking water (OLETF-M1.0), from week 9", "excerpt": "(§1) Otsuka Long-Evans Tokushima Fatty (OLETF) rats were used as a diabetes animal model of rats. The OLETF rats are widely used as a type 2 diabetes animal model because fat accumulation and hyperglycemia are induced in the body of the experimental animals and the pathological condition is similar to that of type 2 diabetes in human. Long-Evans Tokushima Otsuka (LETO) rats were used as a normal control group. The OLETF rats were divided into three groups depending on midodrine intake: OLETF, OLETF-M0.3 and OLETF-M1.0. The OLETF group was raised without intake of midodrine, the OLETF-M0.3 group was made to ingest 0.3 mg of midodrine every day per body weight (midodrine 0.3 mg/kg/day), and the OLETF-M1.0 group was made to ingest 1.0 mg of midodrine every day per body weight (midodrine 1.0 mg/kg/day). Midodrine was dissolved in drinking water so that the rats could ingest the corresponding daily dosage.\n(§2) The experimental animals were divided into four groups: LETO, OLETF, OLETF-M0.3 and OLETF-M1.0, and all the experimental animals were raised for 12 weeks. During the 12 weeks, the OLETF-M0.3 group and the OLETF-M1.0 group were made to ingest midodrine every day."}, "[2]": {"assay": "Body weight change in diabetes model rats", "details": "OLETF rats; for body weight over time: raising period", "excerpt": "as §1, §2"}, "[3]": {"system": "Otsuka Long-Evans Tokushima Fatty (OLETF) rats", "assay": "Onset of cataract in lens by retroillumination imaging (LOCS III C1/P1 or higher)", "details": "untreated OLETF 8 out of 12 eyes", "excerpt": "as §1, §2"}, "[4]": {"system": "Otsuka Long-Evans Tokushima Fatty (OLETF) rats", "assay": "Lens transparency: clarity of graph paper pattern seen through the lens (ImageJ)", "details": "midodrine 0.3 mg/kg/day for 12 weeks (OLETF-M0.3), untreated OLETF significantly decreased", "excerpt": "as §1, §2"}, "aldose reductase": {"system": "aldose reductase", "assay": "Aldose reductase level in lens by ELISA", "details": "OLETF rats, OLETF 38.4±3.1, LETO 37.2±2.8", "excerpt": "as §1, §2\n(§3) The levels of aldose reductase, hexokinase and ATP in the lens sample were measured with a spectrophotometer (Spectramax Plus 384; Molecular Devices, Sunnyvale, CA, USA) by ELISA assay."}, "hexokinase": {"system": "hexokinase", "assay": "Hexokinase level in lens by ELISA", "details": "OLETF rats, untreated OLETF significantly lower than LETO", "excerpt": "as §1, §2, §3"}, "[5]": {"system": "AMPK (AMP-activated protein kinase)", "assay": "AMPK level in lens", "details": "OLETF rats, midodrine 0.3 mg/kg/day (OLETF-M0.3); OLETF 0.0509±0.0293 U/mL"}, "ATP": {"system": "ATP", "assay": "ATP level in lens by ELISA", "details": "OLETF rats, OLETF 2.307±0.225, LETO 2.622±0.146", "excerpt": "as §1, §2, §3"}, "TNFα": {"system": "TNFα", "assay": "TNFα level in blood (plasma)", "details": "OLETF rats, midodrine 0.3 mg/kg/day (OLETF-M0.3); OLETF 10.667±2.732, LETO 7.23±0.722", "excerpt": "as §1, §2"}, "[6]": {"details": "midodrine 0.3 mg/kg/day (OLETF-M0.3)"}, "[7]": {"details": "midodrine 1.0 mg/kg/day (OLETF-M1.0)"}}, "data": [{"compound": "COc1ccc(OC)c(C(O)CNC(=O)CN)c1", "note": "(racemic) [midodrine, (RS)—N-[2-(2,5-dimethoxyphenyl)-2-hydroxyethyl]glycinamide]", "values": [{"measurement": "fasting blood sugar level as compared to the OLETF group", "setting": "[1]", "result": "decreased slightly"}, {"measurement": "body weight compared with the LETO group", "setting": "[2]; midodrine 0.3 mg/kg/day (OLETF-M0.3), from week 9", "result": "no significant difference"}, {"measurement": "body weight over time", "setting": "[2]; midodrine 0.3 mg/kg/day in drinking water (OLETF-M0.3)", "result": "decreased slightly with time"}, {"measurement": "body weight over time", "setting": "[2]; midodrine 1.0 mg/kg/day in drinking water (OLETF-M1.0)", "result": "decreased slightly with time"}, {"measurement": "eyes with cataract observed", "setting": "[3]; midodrine 0.3 mg/kg/day for 12 weeks (OLETF-M0.3)", "result": "1 out of 10"}, {"measurement": "eyes with cataract observed", "setting": "[3]; midodrine 1.0 mg/kg/day for 12 weeks (OLETF-M1.0)", "result": "2 out of 8"}, {"measurement": "lens transparency compared with the LETO group", "setting": "[4]", "result": "no significant difference"}, {"measurement": "level of aldose reductase in lens", "setting": "aldose reductase; [6]", "result": "33.6±2.6", "unit": "U/L"}, {"measurement": "level of aldose reductase in lens", "setting": "aldose reductase; [7]", "result": "34.1±2.8", "unit": "U/L"}, {"measurement": "hexokinase level in lens as compared to the LETO group", "setting": "hexokinase; [6]", "result": "no significant difference"}, {"measurement": "hexokinase level in lens as compared to the LETO group", "setting": "hexokinase; [7]", "result": "no significant difference"}, {"measurement": "AMPK level in lens as compared to the OLETF group", "setting": "[5]", "result": "significantly increased"}, {"measurement": "level of ATP in lens", "setting": "ATP; [6]", "result": "3.065 ± 0.202", "unit": "ng/mL"}, {"measurement": "level of ATP in lens", "setting": "ATP; [7]", "result": "3.025 ± 0.299", "unit": "ng/mL"}, {"measurement": "level of the inflammatory cytokine TNFα in blood (plasma)", "setting": "TNFα", "result": "5.383 ± 0.984", "unit": "pg/mL"}]}]}
